Laboratory results: ChEMBL document CHEMBL1142129, “Effect of carbapenem administration on establishment of intestinal colonization by vancomycin-resistant enterococci and Klebsiella pneumoniae in mice” (Antimicrob Agents Chemother, 2007)
In brackets after ≈: the same amount, converted by molar mass. Activity calls are given as the source filed them. The calls are words filed in the database; no cut-off is given here.

Key:
Enterococcus [1] = test: Overgrowth of vancomycin-resistant enterococci growth in mouse intestine assessed in stool 2 days after 5 days treatment relative to saline; assay type: functional, organism-based
Klebsiella pneumoniae [2] = test: Overgrowth of Klebsiella pneumonia growth in mouse intestine assessed in stool 2 days after 5 day treatment relative to saline; assay type: functional, organism-based
Enterococcus [3] = test: Overgrowth of vancomycin-resistant enterococci growth in mouse intestine assessed in stool 2 days after […] treatment relative to saline; assay type: functional, organism-based
Enterococcus [4] = test: Inhibition of growth in Vancomycin-resistant Enterococci C68 by mouse colonization study; assay type: functional
Klebsiella pneumoniae [5] = test: Inhibition of growth in Klebsiella pneumoniae P62 by mouse colonization study; assay type: functional
Bacteroides sp. = test: Inhibition of intestinal colonization of Bacteroides sp in mouse assessed in stool after 3 days relative to saline; assay type: functional, organism-based
Enterococcus [6] = test: Overgrowth of enterococci in mouse intestine assessed in stool after 3 days; assay type: functional, organism-based
[7] = Drug level in mouse stool after 3 days; assay type: ADME, organism-based; details: read-out: Drug uptake
[8] = Drug level in mouse stool after 5 days; assay type: ADME, organism-based; details: read-out: Drug uptake

Compound	Activity (Enterococcus [1])	Activity (Klebsiella pneumoniae [2])	Activity (Enterococcus [3])	MIC (Enterococcus [4])	MIC (Klebsiella pneumoniae [5])	Activity (Bacteroides sp.)	Activity (Enterococcus [6])	concentration at 72 h [7]	concentration at 120 h [8]
CO/N=C(\C(=O)N[C@@H]1C(=O)N2C(C(=O)O)=C(CSc3nc(=O)c(O)nn3C)CS[C@H]12)c1csc(N)n1 [CEFTRIAXONE]	Active	Active	Active	> 10000 µg/mL	4 µg/mL (≈ 7.21 µM)	Active	Active		
CO/N=C(\C(=O)N[C@@H]1C(=O)N2C(C(=O)O)=C(CSc3nc(=O)c(=O)[nH]n3C)CS[C@H]12)c1csc(N)n1 [CEFTRIAXONE]								93800 ng/g	
C[C@@H](O)[C@H]1C(=O)N2C(C(=O)O)=C(S[C@@H]3CN[C@H](C(=O)Nc4cccc(C(=O)O)c4)C3)[C@H](C)[C@H]12 [ERTAPENEM]	inactive	inactive		> 1020 µg/mL	< 0.25 µg/mL	Active	Active	< 5000 ng/g	10500 ng/g
